Patent US20060058312A1, “Stabilized aqueous preparation for injection” (priority 2004, published 2006)
Read-outs that look alike come from different tables or passages of the source.

Assay type: physicochemical
Conditions: buffer, 13 mg/mL, pH 6.2
Procedure: For the aqueous preparations obtained in (1) to (3) above, tests evaluating stability at 60° C./3 weeks were performed. The calcium levofolinate content remaining in the aqueous solution was measured using high performance liquid chromatography under the following conditions (the same were employed in the following experiments) 2 ml each of the test preparations were weighed, and 10 ml of the internal standard solution described below (the same was employed in the following experiments) were added thereto. Subsequently, water was added to adjust the total volume of the solution to 50 ml, thereby to prepare a test solution. Meanwhile, 62.5 mg of calcium levofolinate were dissolved in water so as to prepare a 25 ml solution. Then, to 10 ml of the resultant solution were added 10 ml of the internal standard solution, and the total volume of the solution was adjusted to 50 ml by adding water, thereby to prepare a standard solution. For 20 μl of the standard solution and the test solution, the content of calcium levofolinate was measured by the liquid chromatography method under the following conditions.
1) Measurement Conditions • Detector: Ultraviolet absorptiometer (Measurement wavelength: 254 nm) • Column: A stainless tube having an internal diameter of 4.0 mm and a length of 15 cm was filled with 5 μm of octadecylsilylated silica gel for liquid chromatography. • Column temperature: A constant temperature near 45° C. • Mobile phase: The pH value of a mixed test solution containing 0.008 mol/L of disodium hydrogen phosphate solution/methanol/40% aqueous tetrabutylammonium hydroxide solution (385:110:1.3 (volume ratio)) was adjusted to 7.5 by adding phosphoric acid. • Flow rate: The flow rate was regulated so that the retention time of calcium levofolinate became about 10 minutes. • Internal standard solution: A solution prepared by adding water to 0.04 g of methyl parahydroxybenzoate so that the whole amount of solution is 100 ml.
About 1100 ml of water for injection were added to a beaker. Then, 8.04 g of sodium chloride, 3.6 g of tromethamine, and 1.2 g of ascorbic acid were added thereto with bubbling of nitrogen gas, and the components were dissolved with stirring. To the resultant solution were added 15.62 g of calcium levofolinate, which was dissolved with stirring. Thereafter, the pH value of the solution was adjusted to 6.2 by adding 5% hydrochloric acid solution dropwise. Water for injection was further added to the solution to adjust the total volume to 1200 ml. Subsequently, the bubbling of nitrogen gas was stopped, and the solution was filtered with a filtration filter, thereby to yield a solution for injection. A 5 ml-syringe made of polypropylene, the inside space of which had been substituted by nitrogen gas, was filled with 5 ml of the resultant solution for injection, followed by steam sterilization under high pressure at 105° C. for 30 minutes. The thus-sterilized syringe was packaged together with a deoxidant, AGELESS ZP-50 (trade name, Mitsubishi Gas Chemical Company, Inc. Japan) by using a plastic film with high air impermeability.
For an aqueous preparation as obtained above, a stability test (60° C./75% RH, and 40° C./75% RH) was performed by measuring the content of calcium levofolinate remaining after storage for a certain period by the high performance liquid chromatography method.

Nc1nc(=O)c2c([nH]1)NC[C@H](CNc1ccc(C(=O)N[C@@H](CCC(=O)O)C(=O)O)cc1)N2C=O [calcium levofolinate, (6S)-N-[4-[[(2-amino-5-formyl-1,4,5,6,7,8-hexahydro-4-oxo-6-pteridinyl)methyl]amino]benzoyl]-L-glutamic acid]
remaining ratio (%) of calcium levofolinate (0 months): 100%
remaining ratio (%) of calcium levofolinate (0 weeks): 100%
remaining ratio (%) of calcium levofolinate (1 month): 99.8%
remaining ratio (%) of calcium levofolinate (2 months): 98.8%
remaining ratio (%) of calcium levofolinate (4 months): 96.6%
remaining ratio (%) of calcium levofolinate (6 months): 91.8%
remaining ratio (%) of calcium levofolinate (168 h): 96.6%
remaining ratio (%) of calcium levofolinate (336 h): 96.2%
remaining ratio (%) of calcium levofolinate (504 h): 95.3%
remaining ratio (%) of calcium levofolinate (672 h): 94.4%
